Active and inactive are the calls of the source.
Tests used:
[1] = molecular target: Beta-lactamase TEM (Bacteria) (UniProt P62593); test: Inhibition of recombinant N-terminal His-tagged Escherichia coli TEM1 (24 to 286 residues) expressed in Escherichia coli BL21(DE3) at 200 uM using FC5 as substrate
[2] = molecular target: Beta-lactamase CTX-M (Escherichia coli) (UniProt Q9EXV5); test: Inhibition of recombinant Escherichia coli EO516 N-terminal His6-tagged CTX-M using FC5 as substrate at 200 uM preincubated at 10 to 300 mins followed by substrate addition
[3] = molecular target: Beta-lactamase (Escherichia coli K-12) (UniProt P00811); test: Inhibition of recombinant Escherichia coli AmpC at 200 uM using FC5 as substrate preincubated at 10 to 300 mins followed by substrate addition
Beta-lactamase (Escherichia coli K-12), sequence (P00811 whole entry): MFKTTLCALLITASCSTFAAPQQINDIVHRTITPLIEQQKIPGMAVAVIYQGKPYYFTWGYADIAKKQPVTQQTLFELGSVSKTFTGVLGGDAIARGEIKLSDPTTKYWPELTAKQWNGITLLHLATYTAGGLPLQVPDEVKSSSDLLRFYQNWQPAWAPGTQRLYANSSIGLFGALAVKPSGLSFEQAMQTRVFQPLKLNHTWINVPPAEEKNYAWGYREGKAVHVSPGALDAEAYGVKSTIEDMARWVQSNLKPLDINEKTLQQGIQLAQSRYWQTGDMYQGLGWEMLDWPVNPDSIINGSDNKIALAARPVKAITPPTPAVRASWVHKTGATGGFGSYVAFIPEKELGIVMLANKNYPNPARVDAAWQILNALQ

[4] = molecular target: Beta-lactamase OXA-10 (Pseudomonas aeruginosa) (UniProt P14489); test: Inhibition of recombinant Pseudomonas aeruginosa OXA-10 at 200 uM using FC5 as substrate
Beta-lactamase OXA-10 (Pseudomonas aeruginosa), sequence (P14489 whole entry): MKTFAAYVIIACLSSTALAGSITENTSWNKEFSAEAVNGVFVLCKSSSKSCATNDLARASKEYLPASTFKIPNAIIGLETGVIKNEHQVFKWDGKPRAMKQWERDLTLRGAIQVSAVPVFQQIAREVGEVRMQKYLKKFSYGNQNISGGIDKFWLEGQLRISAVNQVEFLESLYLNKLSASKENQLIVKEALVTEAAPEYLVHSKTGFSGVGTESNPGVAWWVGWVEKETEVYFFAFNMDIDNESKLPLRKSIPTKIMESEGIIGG

Measured: inhibition

Beta-lactamase TEM (Bacteria), sequence (P62593 whole entry, the tested form may be a part): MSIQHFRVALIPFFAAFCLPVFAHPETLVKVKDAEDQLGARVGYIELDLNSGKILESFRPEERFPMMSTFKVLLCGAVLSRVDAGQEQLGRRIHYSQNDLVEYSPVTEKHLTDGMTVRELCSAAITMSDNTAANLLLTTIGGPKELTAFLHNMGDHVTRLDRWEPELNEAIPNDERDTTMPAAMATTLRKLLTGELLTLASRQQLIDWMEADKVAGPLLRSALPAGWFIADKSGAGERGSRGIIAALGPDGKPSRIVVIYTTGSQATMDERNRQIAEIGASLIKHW

O=C(O)CN1C(=O)/C(=C/c2cccc(Cl)c2Cl)SC1=S
inactive: all assays above

O=C(O)CN1C(=O)/C(=C/c2csc3ccccc23)SC1=S
inactive: all assays above

CN1CCN(NC(=O)CN2C(=O)/C(=C/c3ccccc3Cl)SC2=S)CC1
inactive: all assays above

O=C(O)CN1C(=O)/C(=C/c2ccccc2Br)SC1=S
inactive: all assays above

CN1CCN(NC(=O)CN2C(=O)/C(=C/c3c(Cl)cccc3Cl)SC2=S)CC1
inactive: all assays above

CN1CCN(NC(=O)CN2C(=O)/C(=C/c3ccccc3I)SC2=S)CC1
inactive: all assays above

O=C(O)/C(S)=C/c1cccc(Cl)c1Cl
inactive: all assays above

O=C(O)CN1C(=O)/C(=C/c2c(Cl)cccc2Cl)SC1=S
inactive: all assays above

O=C(O)/C(S)=C/c1c(Cl)cccc1Cl
inactive: all assays above

CN1CCN(NC(=O)CN2C(=O)/C(=C/c3ccccc3Br)SC2=S)CC1
inactive: all assays above

CN1CCN(NC(=O)CN2C(=O)/C(=C/c3cccc(Cl)c3Cl)SC2=S)CC1
inactive: all assays above

O=C(O)/C(S)=C/c1csc2ccccc12
inactive: all assays above

CN1CCN(NC(=O)CN2C(=O)/C(=C/c3c(Cl)ccc(Cl)c3Cl)SC2=S)CC1
inactive: all assays above

Cc1ccc(/C=C(\S)C(=O)O)cc1
inactive: all assays above

O=C(O)/C(S)=C/c1c(Cl)ccc(Cl)c1Cl
inactive: all assays above

O=C(O)CN1C(=O)/C(=C/c2c(F)ccc(F)c2F)SC1=S
inactive: all assays above

O=C(O)/C(S)=C/c1ccc(Br)cc1
inactive: all assays above

O=C(O)/C(S)=C/c1ccccc1
inactive: all assays above

Cc1cccc(C)c1/C=C(\S)C(=O)O
inactive: all assays above

O=C(O)/C(S)=C/c1ccccc1Br
inactive: all assays above

O=C(O)CN1C(=O)/C(=C/c2ccccc2F)SC1=S
inactive: all assays above

CN1CCN(NC(=O)CN2C(=O)/C(=C/c3c(F)cccc3F)SC2=S)CC1
inactive: all assays above

CN1CCN(NC(=O)CN2C(=O)/C(=C/c3ccccc3F)SC2=S)CC1
inactive: all assays above

O=C(O)/C(S)=C/c1c(F)ccc(F)c1F
inactive: all assays above

O=C(O)CN1C(=O)/C(=C/c2ccccc2)SC1=S
inactive: all assays above

O=C(O)CN1C(=O)/C(=C/c2ccccc2I)SC1=S
inactive: all assays above

O=C(O)CN1C(=O)/C(=C/c2cc(Cl)ccc2Cl)SC1=S
inactive: all assays above

Cc1cccc(C)c1/C=C1\SC(=S)N(CC(=O)NN2CCN(C)CC2)C1=O
inactive: all assays above

O=C(O)CN1C(=O)/C(=C/c2c(F)cccc2F)SC1=S
inactive: all assays above

CN1CCN(NC(=O)CN2C(=O)/C(=C/c3c(F)cccc3Cl)SC2=S)CC1
inactive: all assays above

Cc1ccc(/C=C2\SC(=S)N(CC(=O)NN3CCN(C)CC3)C2=O)cc1
inactive: all assays above

CN1CCN(NC(=O)CN2C(=O)/C(=C/c3cc(Cl)ccc3Cl)SC2=S)CC1
inactive: all assays above

O=C(O)/C(S)=C/c1cc(Cl)ccc1Cl
inactive: all assays above

CN1CCN(NC(=O)CN2C(=O)/C(=C/c3c(F)ccc(F)c3F)SC2=S)CC1
inactive: all assays above

O=C(O)CN1C(=O)/C(=C/c2c(F)cccc2Cl)SC1=S
inactive: all assays above

COc1ccc(/C=C2\SC(=S)N(CC(=O)NN3CCN(C)CC3)C2=O)cc1
inactive: all assays above

O=C(O)/C(S)=C/c1ccc(F)cc1
inactive: all assays above

O=C(O)CN1C(=O)/C(=C/c2ccc(F)cc2)SC1=S
inactive: all assays above

Cc1cccc(C)c1/C=C1\SC(=S)N(CC(=O)O)C1=O
inactive: all assays above

COc1ccc(/C=C(\S)C(=O)O)cc1
inactive: all assays above

O=C(O)/C(S)=C/c1c(F)cccc1Cl
inactive: all assays above

O=C(O)CN1C(=O)/C(=C/c2ccc(Br)cc2)SC1=S
inactive: all assays above

Cc1ccc(/C=C2\SC(=S)N(CC(=O)O)C2=O)cc1
inactive: all assays above

COc1ccc(/C=C2\SC(=S)N(CC(=O)O)C2=O)cc1
inactive: all assays above

O=C(O)/C(S)=C/c1ccccc1I
inactive: all assays above

CN1CCN(NC(=O)CN2C(=O)/C(=C/c3csc4ccccc34)SC2=S)CC1
inactive: all assays above

CN1CCN(NC(=O)CN2C(=O)/C(=C/c3ccccc3)SC2=S)CC1
inactive: all assays above

O=C(O)/C(S)=C/c1ccccc1Cc1ccc2ccccc2c1
inactive: all assays above

O=C(O)/C(S)=C/c1ccccc1F
inactive: all assays above

CN1CCN(NC(=O)CN2C(=O)/C(=C/c3ccc(F)cc3)SC2=S)CC1
inactive: all assays above

O=C(O)/C(S)=C/c1c(F)cccc1F
inactive: all assays above

Source: ChEMBL document CHEMBL4118127, “Structure activity relationship studies on rhodanines and derived enethiol inhibitors of metallo-β-lactamases” (Bioorg Med Chem, 2018)
